Bridges are numbered along the chain shown (N, C = ends). Roman numbers before positions name the chains, in order.

This assay concerns IL-1β signaling (HEK-Blue IL-1β cells). Nature of the assay: SEAP reporter assay in HEK-Blue IL-1β reporter cells. It is filed as cell-based, human. Conditions: 10 μM; 250 pg/mL IL-1β. The method, then:
HEK-Blue® IL-33 (Invivogen, Cat. #hkb-hil33) and IL-1β cells (Invivogen, Cat #hkb-il1bv2) were cultured in T25 and T75 flasks (NUNC, Cat. #156367 and #156499) in DMEM media supplemented with L-glutamine (Gibco, Cat. #11995-065), 10% Fetal Bovine Serum (Gibco, Cat. #10437-028), 1% Penicillin/Streptomycin (Gibco, Cat. #15140-148), and 0.5% Normacin® (Invivogen, Cat. #ant-hr-1). IL-33 cell growth media also included 1 mL of 250× Selectin Cocktail® (Invivogen, Cat. #hb-sel) and IL-1β cell growth media included 100 μg/mL of Zeocin® (Cat #ant-zn-05). Cells were maintained at 37° C. with humidity and 5% CO2 and were passaged upon reaching 80-85% confluency. To ensure assay consistency, passage number was kept low (<20) to maintain stable ST2 and IL-1RI expression.
IL-33 and IL-1β signaling activation was assessed based on the expression of a SEAP reporter gene. Flasks were washed 2× with prewarmed, sterile PBS (Gibco), scraped in fresh media, and spun down for 5 m at 250×g. Pellet was resuspended in 5 mL test medium (DMEM, 10% heat inactivated FBS, and 1% P/S), cells counted, and concentration adjusted to 2.8×10^5 cell/mL. […] After incubation, SEAP reporter gene phosphatase activity was measured by adding 20 μL of supernatant from each well to 180 μL of QuantiBLUE substrate (Invivogen, Cat #rep-qbs) and incubated an additional 30 min at 37° C. Colorimetric absorbance was measured at 620 nm. […]
(In a reporter assay the amount or activity of a reporter protein is the signal.)

As for “MSTOP: 3WJ DNA scaffold whose three DBCO staple strands carry cyclized azidolysine IL-1RAcP hotspot peptides; decoy for IL-33/ST2 (peptide 1 Ac-CKEYGIQRITC-NH2; peptide 2 Ac-AKVGSPKNAVPPC-NH2; peptide 3 Ac-CKGEVAKAAKVKC-NH2; disulfide I:1-I:11, III:1-III:13; thioether II:1-II:13; not fully specified (some residues); also: three peptides held on a 3-way junction DNA scaffold via DBCO staple strands)”, the “reduction in SEAP expression” value is “Negligible reduction”.

For the origin of these results see patent publication US20240084044A1, “Heteromultivalent Nucleic Acid Scaffolds and Uses Thereof” (George Mason University, priority 2022, published 2024).
